Columns and labels:
Assay type in all cases: cell-based
[1] = tested on: mouse breast cancer 4T1 cells; experiment: Docetaxel/Eribulin and Defactinib: microscopy and CRT/Annexin-V/PI flow cytometry; details: 48 hours, Defactinib 5 µM, Docetaxel 0.3 µM, Eribulin 0.1 µM, alone or combined with Defactinib
Method: (§1) 4T1 cells were cultured in a monolayer in vitro in RPMI-1640 medium with 10% fetal bovine serum in a 37 °C, 5% CO2 incubator. Trypsin was used for routine digestion and passage treatment two to three times a week. When the cells were in the exponential growth phase and the adherent confluence reached 80%-90%, the cells were harvested and plated.
(§2) 4T1 cells were digested with trypsin, and then the cells were collected and counted. Based on the counting results, the cells were diluted with the corresponding complete culture medium to a concentration of 50,000 cells per milliliter. Then the cells were plated in 12-well cell culture plates, with 2 ml of cell suspension per well, i.e., 100,000 cells.
(§3) After plating, the cells were cultured in a 37°C and 5% CO2 incubator.
After 24 hours of plating, the test compounds Defactinib, Docetaxel and Eribulin were added to different wells, respectively.
(§4) After 48 hours of drug action, the cells were photographed using a microscope, and then trypsinized and collected for flow cytometry staining.
The cells were washed twice with flow buffer (DPBS + 2% FBS). 0.5 µL of AF647 Anti-Calreticulin Antibody was added to each well, and mixed well. The cells were incubated at 4°C in the dark for 20 min. […]
(§5) After the assay, the cell positive rate was analyzed by Flowjo (V10) software.

[2] = tested on: MDA-MB-231 cells; experiment: FAK silencing combined with Eribulin, Calreticulin (ICD target) by flow cytometry; details: MDA-MB-231 cells transfected with FAK siRNA 50 nM for 24 hours, then 0.15 µM Eribulin 48 hours; vs control siRNA
Method: (§6) • 1. FAK silencing combined with Eribulin promotes apoptosis of breast cancer cells MDA-MB-231 The siRNA technology was used in the in vitro assays to reduce the expression level of FAK, and combined with Eribulin for 48 hours; flow cytometry was used to detect apoptosis in control and FAK silenced cells. • 2. FAK silencing combined with Eribulin can effectively promote the production of ICD in breast cancer cells MDA-MB-231 The siRNA technology was used in the in vitro assay to reduce the expression level of FAK, and combined with Eribulin for 48 hours. Flow cytometry was used to detect the expression of Calreticulin, the main target of ICD.
(§7) Recombinant Alexa Fluor® 647 fluorescent Anti-Calreticulin antibody (Abcam, ab196159), Annexin V apoptosis detection kit (Invitrogen, A35110).
(§8) FAK siRNA was provided by Gene Pharma, and the sequence is shown in the following table: • F: […]; • R: […] • Assay instruments: Fluorescence microscope (Olympus U-HGLGPS). Chemiluminescence imager (BIORAD chemidoc touch).
(§9) • 1. […] The cells were stained using Annexin V kit and detected by flow cytometry. The early and late apoptosis values were counted, compared with those of the DMSO control group, and plotted using Graphpad 8.0. […] The cells were fluorescent stained with Calreticulin antibody, and the staining results were analyzed by flow cytometry.

[3] = tested on: mouse colon cancer CT26 cells; experiment: Docetaxel/Eribulin/Paclitaxel and Defactinib: microscopy and CRT/Annexin-V/PI flow cytometry; details: 48 hours, Defactinib 5 µM, Docetaxel 0.3 µM, Eribulin 0.3 µM, Paclitaxel 6 µM, alone or combined with Defactinib
Method: as §1, with “CT26 cells” for “4T1 cells”, “in” for “in a”, “vitro under the following conditions:” for “vitro in”, “bovine serum, 37°C,” for “bovine serum in a 37 °C,”, “5% CO2.” for “5% CO2 incubator.”
as §2, with “CT26” for “4T1”
as §3
After 24 hours of plating, the test compounds Docetaxel, Eribulin, Paclitaxel and Defactinib were added to different wells, respectively.
as §4
(§10) The cells were washed twice with flow buffer (DPBS + 2% FBS). 0.5 µL of AF647 Anti-Calreticulin Antibody was added to each well, and mixed well. The cells were incubated at 4°C in the dark for 20 min. After washing once with flow buffer, 195 µL of Annexin-V-FITC binding solution was added, and the cells were gently mixed well. 5 µL of Annexin-V-FITC antibody was added. After further mixing, 10 µL of PI dye was added and mixed well. The cells were incubated at room temperature in the dark for 15 min. The cells were then subjected to flow cytometry.
as §5

[4] = tested on: mouse breast cancer 4T1 cells; experiment: Eribulin and IN10018: microscopy and CRT/Annexin-V/PI and GRP94 flow cytometry; details: 48 hours, IN10018 5 µM, Eribulin 0.15 µM or 0.45 µM, alone or combined
Method: as §1, with “in” for “in a”, “vitro under the following conditions:” for “vitro in”, “bovine serum,” for “bovine serum in a”, “5% CO2.” for “5% CO2 incubator.”
4T1 cells were digested with trypsin and then collected and counted. Based on the counting results, the cells were diluted with RPMI-1640+10% FBS to a concentration of 50,000 cells per milliliter. Then the cells were plated in 12-well cell culture plates, with 2 ml of cell suspension per well, i.e., 100,000 cells. After plating, the cells were cultured in a 37°C and 5% CO2 incubator.
(§11) After 24 hours of plating, test compounds IN10018 and Eribulin were added to different wells, respectively.
as §4
The cells were washed twice with flow buffer (DPBS + 2% FBS), and each group of cells was divided into two equal parts. In one part, 0.5 µL of AF647 Anti-Calreticulin Antibody was added to each well, and mixed. The cells were incubated at 4°C in the dark for 20 min. […]
as §5

[5] = tested on: human ovarian epithelial carcinoma TOV-21G cells; experiment: Eribulin and IN10018: microscopy and CRT/Annexin-V/PI flow cytometry; details: 48 hours, IN10018 10 µM, Eribulin 0.045 µM, alone or combined
Method: (§12) ID8 cells and TOV-21G cells were cultured in monolayer in vitro. ID8 cells were cultured in DMEM medium with 10% fetal bovine serum. TOV-21G cells were cultured in RPMI-1640 medium with 10% fetal bovine serum. Both were cultured in a 37 °C, 5% CO2 incubator. Trypsin was used for routine digestion and passage treatment two to three times a week. When the cells were in the exponential growth phase and the adherent confluence reached 80%-90%, the cells were harvested and plated.
as §2, with “ID8 cells and TOV-21G” for “4T1”, “trypsin” for “trypsin,”, “then” for “then the cells were”
as §3, §11, §4
as §10, with “well, and mixed. The cells” for “well, and mixed well. The cells”
as §5

[6] = tested on: mouse ovarian epithelial carcinoma ID8 cells; experiment: as above; details: 48 hours, IN10018 10 µM, Eribulin 0.045 µM, alone or combined
Method: as §12
as §2, with “ID8 cells and TOV-21G” for “4T1”, “trypsin” for “trypsin,”, “then” for “then the cells were”
as §3, §11, §4
as §10, with “well, and mixed. The cells” for “well, and mixed well. The cells”
as §5

[7] = tested on: MDA-MB-231 cells; experiment: FAK silencing combined with Eribulin, Annexin V apoptosis by flow cytometry; details: MDA-MB-231 cells transfected with FAK siRNA 50 nM for 24 hours, then 0.15 µM Eribulin 48 hours; FAK silencing group compared with control group
Method: as §6, §7, §8, §9

C=C1C[C@@H]2CC[C@@]34C[C@H]5O[C@H]6[C@@H](O3)[C@H]3O[C@H](CC[C@@H]3O[C@H]6[C@H]5O4)CC(=O)C[C@@H]3[C@@H](OC)[C@@H](C[C@H](O)CN)O[C@H]3C[C@H]3O[C@@H](CC[C@@H]1O2)C[C@@H](C)C3=C [Eribulin]
significantly enhanced: release and exposure of Calreticulin [2] | early and late apoptosis (Annexin V kit) [7]
obvious: cell status (cell death) under a microscope [1] | cell status (cell death) under a microscope [3] | cell status (cell death / cell viability) under a microscope [4] | cell status (cell death / cell viability) under a microscope [5] | cell status (cell death / cell viability) under a microscope [6]
